The target in this experiment is NMDA receptor (GRIN1/GRIN2A) (Homo sapiens, UniProt Q05586+Q12879). The experiment can be described thus: NMDA potentiation, two electrode voltage clamp (TEVC) of Xenopus oocytes expressing NMDA receptor. In kind it is cell-based. The settings on record: 10 μM compound, 3 μM Glutamate and Glycine. Here is the method: NMDA potentiation was assessed using either whole cell patch clamp of mammalian cells which expressed NMDA receptors, or using two-electrode voltage clamp (TEVC) of Xenopus Laevis oocytes expressing NMDA receptors.
NMDA receptor (GRIN1/GRIN2A), sequence (Q12879 23-1464, other chains not shown): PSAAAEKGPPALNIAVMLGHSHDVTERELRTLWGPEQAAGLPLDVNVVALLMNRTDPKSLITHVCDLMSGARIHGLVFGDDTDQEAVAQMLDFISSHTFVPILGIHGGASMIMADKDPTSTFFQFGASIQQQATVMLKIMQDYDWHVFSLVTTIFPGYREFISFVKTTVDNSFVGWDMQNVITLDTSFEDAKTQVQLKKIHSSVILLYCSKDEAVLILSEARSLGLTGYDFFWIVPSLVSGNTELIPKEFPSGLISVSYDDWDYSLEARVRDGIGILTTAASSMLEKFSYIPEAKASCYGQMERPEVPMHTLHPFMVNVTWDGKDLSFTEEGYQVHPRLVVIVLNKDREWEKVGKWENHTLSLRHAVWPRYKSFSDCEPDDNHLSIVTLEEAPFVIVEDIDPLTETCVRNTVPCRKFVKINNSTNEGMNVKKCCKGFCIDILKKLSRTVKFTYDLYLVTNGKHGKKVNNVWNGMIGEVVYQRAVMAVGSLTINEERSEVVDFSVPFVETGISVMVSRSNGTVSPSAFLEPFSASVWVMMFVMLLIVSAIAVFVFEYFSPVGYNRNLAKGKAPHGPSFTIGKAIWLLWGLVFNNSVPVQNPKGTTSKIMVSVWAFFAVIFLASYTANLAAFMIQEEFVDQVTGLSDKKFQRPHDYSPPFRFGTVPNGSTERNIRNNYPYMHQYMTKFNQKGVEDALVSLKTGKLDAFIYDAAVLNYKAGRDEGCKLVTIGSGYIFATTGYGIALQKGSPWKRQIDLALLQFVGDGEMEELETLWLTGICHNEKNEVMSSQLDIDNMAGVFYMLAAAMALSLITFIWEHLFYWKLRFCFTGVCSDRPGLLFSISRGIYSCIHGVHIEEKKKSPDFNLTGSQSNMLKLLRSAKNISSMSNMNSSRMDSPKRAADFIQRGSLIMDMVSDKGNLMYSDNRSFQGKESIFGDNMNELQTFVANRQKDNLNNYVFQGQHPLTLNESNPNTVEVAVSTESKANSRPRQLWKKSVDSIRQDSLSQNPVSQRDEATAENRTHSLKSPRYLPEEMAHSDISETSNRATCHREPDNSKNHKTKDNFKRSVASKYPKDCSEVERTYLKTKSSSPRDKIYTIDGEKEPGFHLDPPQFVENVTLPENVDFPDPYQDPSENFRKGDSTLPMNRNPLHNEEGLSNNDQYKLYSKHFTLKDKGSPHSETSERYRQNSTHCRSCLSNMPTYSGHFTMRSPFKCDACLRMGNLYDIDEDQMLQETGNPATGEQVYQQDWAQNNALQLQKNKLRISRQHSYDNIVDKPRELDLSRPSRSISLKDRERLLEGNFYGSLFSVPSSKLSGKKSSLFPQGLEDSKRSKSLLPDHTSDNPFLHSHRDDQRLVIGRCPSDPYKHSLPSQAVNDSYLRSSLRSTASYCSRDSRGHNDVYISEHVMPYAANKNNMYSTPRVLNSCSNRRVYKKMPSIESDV
The Two Electrode Voltage Clamp (TEVC) technique was used to investigate the effects of compounds (10 μM) on the NMDA receptor (GRIN1/GRIN2A) expressed in Xenopus oocytes. Glutamate/Glycine peak and steady-state currents were recorded from oocytes that expressed the NMDA receptor and the modulatory effects of the test items on these currents were investigated.
Ovaries were harvested from Xenopus Laevis females that had been deeply anesthetized by cooling at 4° C. and immersion in Tricaine methanesulfonate (MS-222 at a concentration of 150 mg/L) in sodium bicarbonate (300 mg/L). Once anesthetized the animal was decapitated and pithed following the rules of animal rights from the Geneva canton. A small piece of ovary was isolated for immediate preparation while the remaining part was placed at 4° C. in a sterile Barth solution containing in mM NaCl 88, KCl 1, NaHCO3 2.4, HEPES 10, MgSO4·7H2O 0.82, Ca(NO3)2·4H2O 0.33, CaCl2·6H2O 0.41, at pH 7.4, and supplemented with 20 μg/ml of kanamycin, 100 unit/ml penicillin and 100 μg/ml streptomycin. All recordings were performed at 18° C. and cells were super-fused with medium containing in mM: NaCl 82.5, KCl 2.5, HEPES 5, CaCl2·2H2O, ·6H2O 1, pH 7.4.
Oocytes were injected with either cDNAs encoding for the human GRIN1 and GRIN2A subunits, using a proprietary automated injection device (Hogg et al., J. Neurosci. Methods, (2008) 169: 65-75) and receptor expression was assessed using electrophysiology at least two days later. The ratio of cDNA injection for GRIN1 and GRIN2A was 1:1. Electrophysiological recordings were made using an automated process equipped with standard TEVC and data were captured and analyzed using a proprietary data acquisition and analysis software running under Matlab (Mathworks Inc.). The membrane potential of the oocytes was maintained at −80 mV throughout the experiments. To explore the effects of proprietary compounds, currents were evoked by applying 3 μM Glutamate and […] Glycine for 10 s. Oocytes were then washed for 90 s before being exposed to the test article at a concentration of 10 μM for 120 s. Following this, 3 μM Glutamate and […] Glycine were immediately reapplied for 10 s. Potentiation of both the peak current and the steady state current was assessed. For statistical analysis values were computed either with Excel (Microsoft) or Matlab (Mathworks Inc.). To obtain mean measurements with standard deviations, all experiments were carried out using at least three cells.
Glutamate was prepared as a concentrated stock solution ([…]) in water and then diluted in the recording medium to obtain the desired test concentration. Glycine was prepared as a stock solution at 1 M in water. Compounds were prepared as stock solution ([…]) in DMSO and then diluted in the recording medium to obtain the desired test concentration.

On to `C[C@H](CC[C@@](C)(O)CCCO)[C@H]1CC[C@H]2[C@@H]3CC=C4C[C@@](C)(O)CC[C@]4(C)[C@H]3CC[C@]12C` [Compound 6-9], for which the activation at 10 µM lay within 10 to 50%. The figure for `COCCC(C)(O)CC[C@@H](C)[C@H]1CC[C@H]2[C@@H]3CC=C4C[C@@](C)(O)CC[C@]4(C)[C@H]3CC[C@]12C` (some centres unmarked) [Compound 10-14] is 50 to 100%; for `COCC[C@](C)(O)CC[C@@H](C)[C@H]1CC[C@H]2[C@@H]3CC[C@H]4C[C@@](C)(O)CC[C@]4(C)[C@H]3CC[C@]12C` [Compound 10-17] it is greater than 100%.

`CC[C@@](C)(O)CC[C@@H](C)[C@H]1CC[C@H]2[C@@H]3CC[C@H]4C[C@@](C)(O)CC[C@]4(C)[C@H]3CC[C@]12C` [Compound 4-9]: the activation at 10 µM was in the range of 10 to 50%.

On to `C[C@H](CC[C@@](C)(O)C1CC1)[C@H]1CC[C@H]2[C@@H]3CC=C4C[C@@](C)(O)CC[C@]4(C)[C@H]3CC[C@]12C` [Compound 9-3], for which the activation at 10 µM lay in the range of 50 to 100%.

Turning to `CC[C@]1(O)CC[C@@]2(C)[C@@H](CC[C@@H]3[C@@H]2CC[C@]2(C)[C@@H]([C@H](C)CC[C@H](O)C(F)(F)F)CC[C@@H]32)C1` [Compound 2-10], the activation at 10 µM was in the range of 10 to 50%. The figure for `C#CC(C)(O)CC[C@@H](C)[C@H]1CC[C@H]2[C@@H]3CC=C4C[C@@](C)(O)CC[C@]4(C)[C@H]3CC[C@]12C` (some centres unmarked) [Compound 10-2] is 50 to 100%. In the case of `CC[C@]1(O)CC[C@@]2(C)[C@@H](CC[C@@H]3[C@@H]2CC[C@]2(C)[C@@H]([C@H](C)CCC(O)C(F)(F)F)CC[C@@H]32)C1` (some centres unmarked) [Compound 2-5], the activation at 10 µM was in the range of 50 to 100%. `COCC[C@@](C)(O)CC[C@@H](C)[C@H]1CC[C@H]2[C@@H]3CC[C@H]4C[C@@](C)(O)CC[C@]4(C)[C@H]3CC[C@]12C` [Compound 10-19]: the activation at 10 µM lay within 10 to 50%. Then `C#CC(C)(O)CC[C@@H](C)[C@H]1CC[C@H]2[C@@H]3CC[C@H]4C[C@@](C)(O)CC[C@]4(C)[C@H]3CC[C@]12C` (some centres unmarked) [Compound 10-6], with 50 to 100%; and `CCC[C@@](C)(O)CC[C@@H](C)[C@H]1CC[C@H]2[C@@H]3CC[C@H]4C[C@@](C)(O)CC[C@]4(C)[C@H]3CC[C@]12C` [Compound 5-8], with 50 to 100%.

As to `CC[C@]1(O)CC[C@@]2(C)C(=CC[C@H]3[C@@H]4CC[C@H]([C@H](C)CC[C@H](O)C(F)(F)F)[C@@]4(C)CC[C@@H]32)C1` [Compound 2-8], the activation at 10 µM is 50 to 100%. Then `CC(C)[C@](C)(O)CC[C@@H](C)[C@H]1CC[C@H]2[C@@H]3CC=C4C[C@@](C)(O)CC[C@]4(C)[C@H]3CC[C@]12C` [Compound 8-8], with greater than 100%; and `C[C@H](CC(F)(F)[C@@H](C)O)[C@H]1CC[C@H]2[C@@H]3CC=C4C[C@@](C)(O)CC[C@]4(C)[C@H]3CC[C@]12C` [Compound 11-16], with 10 to 50%; and `C[C@H](CC(F)(F)C(C)(C)O)[C@H]1CC[C@H]2[C@@H]3CC=C4C[C@@](C)(O)CC[C@]4(C)[C@H]3CC[C@]12C` [Compound 11-19], with 10 to 50%.

As for `CCC[C@](C)(O)CC[C@@H](C)[C@H]1CC[C@H]2[C@@H]3CC=C4C[C@@](C)(O)CC[C@]4(C)[C@H]3CC[C@]12C` [Compound 5-5], the activation at 10 µM fell in the range of 10 to 50%. Then `C[C@H](CC[C@](C)(O)C1CC1)[C@H]1CC[C@H]2[C@@H]3CC=C4C[C@@](C)(O)CC[C@]4(C)[C@H]3CC[C@]12C` [Compound 9-4], with 50 to 100%. The figure for `COCC[C@](C)(O)CC[C@@H](C)[C@H]1CC[C@H]2[C@@H]3CC=C4C[C@@](C)(O)CC[C@]4(C)[C@H]3CC[C@]12C` [Compound 10-22] is 50 to 100%. Then `CCC[C@@](C)(O)CC[C@@H](C)[C@H]1CC[C@H]2[C@@H]3CC=C4C[C@@](C)(O)CC[C@]4(C)[C@H]3CC[C@]12C` [Compound 5-6], with 10 to 50%. Consider `C[C@H](CCC(C)(O)C(F)(F)F)[C@H]1CC[C@H]2[C@@H]3CC[C@H]4C[C@@](C)(O)CC[C@]4(C)[C@H]3CC[C@]12C` (some centres unmarked) [Compound 3-3], for which the activation at 10 µM is 50 to 100%. Then `C=CC[C@](C)(O)CC[C@@H](C)[C@H]1CC[C@H]2[C@@H]3CC[C@H]4C[C@@](C)(O)CC[C@]4(C)[C@H]3CC[C@]12C` [Compound 6-11], with 10 to 50%; and `C=C[C@](C)(O)CC[C@@H](C)[C@H]1CC[C@H]2[C@@H]3CC[C@H]4C[C@@](C)(O)CC[C@]4(C)[C@H]3CC[C@]12C` [Compound 10-10], with 10 to 50%. Then `CCCC[C@@](C)(O)CC[C@@H](C)[C@H]1CC[C@H]2[C@@H]3CC[C@H]4C[C@@](C)(O)CC[C@]4(C)[C@H]3CC[C@]12C` [Compound 7-7], with 10 to 50%. Then `C[C@H](CC[C@](C)(O)CCO)[C@H]1CC[C@H]2[C@@H]3CC[C@H]4C[C@@](C)(O)CC[C@]4(C)[C@H]3CC[C@]12C` [Compound 10-18], with 50 to 100%. On to `C#C[C@](C)(O)CC[C@@H](C)[C@H]1CC[C@H]2[C@@H]3CC[C@H]4C[C@@](C)(O)CC[C@]4(C)[C@H]3CC[C@]12C` [Compound 10-8], for which the activation at 10 µM is 50 to 100%. Then `CC[C@](C)(O)CC[C@@H](C)[C@H]1CC[C@H]2[C@@H]3CC=C4C[C@@](C)(O)CC[C@]4(C)[C@H]3CC[C@]12C` [Compound 4-12], with 50 to 100%.

Values taken from patent publication US12617814B2, “Neuroactive steroids and methods of use thereof” (Sage Therapeutics, LLC, priority 2013, dated 2026).
